Measured values as given in PubChem BioAssay AID2060882 (Molecular Pharmacology Branch, DTP, NCI, 2025).

System: 898857-211-R-J1-PDC complex spheroids, growth % test/control
Assay: Anticancer human tumor 898857-211-R-J1-PDC patient-derived melanoma cell line growth inhibition [RAS]
Settings: for IC50: curve of first compound; for viability, T/C: stronger effect = lower value
Outline: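 Multi-cell-type spheroids: tumor cells plus HUVEC endothelial cells and mesenchymal stem cells. RAS-pathway inhibitors were combined with targeted agents, each dosed in half-log steps down from clinical Cmax, or from 10 microM when Cmax was unknown.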
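Further: spheroids exposed to compound for seven days before readout.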
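Wherever viability, T/C is given: 100% = DMSO vehicle control wells.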

Which results are given for CC(=O)OC12COC1CC(O)C1(C)C(=O)C(O)C3=C(C)C(OC(=O)C(O)C(NC(=O)OC(C)(C)C)c4ccccc4)CC(O)(C(OC(=O)c4ccccc4)C21)C3(C)C (configuration not stated) + C=CC(=O)N1CCN(c2nc(OCC3CCCN3C)nc3c(F)c(-c4nc(N)cc(C)c4C(F)(F)F)c(Cl)cc23)C(C)C1?
IC50 (second compound 0.00316 µM): < 31.6 nM; IC50 (second compound 0.01 µM): < 31.6 nM; IC50 (second compound 0.0316 µM): < 31.6 nM; IC50 (second compound 0.1 µM): < 31.6 nM; IC50 (second compound 0.316 µM): < 31.6 nM; IC50 (second compound 1 µM): < 31.6 nM; viability, T/C (second compound 0.00316 µM, first compound 0.0316 µM): 12.3%; viability, T/C (second compound 0.00316 µM, first compound 0.1 µM): 15.6%; viability, T/C (second compound 0.00316 µM, first compound 0.316 µM): 14.2%; viability, T/C (second compound 0.00316 µM, first compound 1 µM): 15.5%; viability, T/C (second compound 0.00316 µM, first compound 3.16 µM): 21.2%; viability, T/C (second compound 0.00316 µM, first compound 10 µM): 20.4%; viability, T/C (second compound 0.01 µM, first compound 0.0316 µM): 12%; viability, T/C (second compound 0.01 µM, first compound 0.1 µM): 13.7%; viability, T/C (second compound 0.01 µM, first compound 0.316 µM): 10.5%; viability, T/C (second compound 0.01 µM, first compound 1 µM): 14.5%; viability, T/C (second compound 0.01 µM, first compound 3.16 µM): 21.1%; viability, T/C (second compound 0.01 µM, first compound 10 µM): 19.6%; viability, T/C (second compound 0.0316 µM, first compound 0.0316 µM): 13.1%; viability, T/C (second compound 0.0316 µM, first compound 0.1 µM): 13.1%; viability, T/C (second compound 0.0316 µM, first compound 0.316 µM): 14.3%; viability, T/C (second compound 0.0316 µM, first compound 1 µM): 14.8%; viability, T/C (second compound 0.0316 µM, first compound 3.16 µM): 24.2%; viability, T/C (second compound 0.0316 µM, first compound 10 µM): 20%; viability, T/C (second compound 0.1 µM, first compound 0.0316 µM): 11.5%; viability, T/C (second compound 0.1 µM, first compound 0.1 µM): 15.1%; viability, T/C (second compound 0.1 µM, first compound 0.316 µM): 14.3%; viability, T/C (second compound 0.1 µM, first compound 1 µM): 16.5%; viability, T/C (second compound 0.1 µM, first compound 3.16 µM): 16.2%; viability, T/C (second compound 0.1 µM, first compound 10 µM): 19.9%; viability, T/C (second compound 0.316 µM, first compound 0.0316 µM): 12.8%; viability, T/C (second compound 0.316 µM, first compound 0.1 µM): 15.5%; viability, T/C (second compound 0.316 µM, first compound 0.316 µM): 14.2%; viability, T/C (second compound 0.316 µM, first compound 1 µM): 16.9%; viability, T/C (second compound 0.316 µM, first compound 3.16 µM): 14.7%; viability, T/C (second compound 0.316 µM, first compound 10 µM): 21.1%; viability, T/C (second compound 1 µM, first compound 0.0316 µM): 12%; viability, T/C (second compound 1 µM, first compound 0.1 µM): 13.3%; viability, T/C (second compound 1 µM, first compound 0.316 µM): 12.1%; viability, T/C (second compound 1 µM, first compound 1 µM): 15.4%; viability, T/C (second compound 1 µM, first compound 3.16 µM): 19.4%; viability, T/C (second compound 1 µM, first compound 10 µM): 15.2%
